For this test, the system named is Mycobacterium tuberculosis non-replicating, growth inhibition. The test can be described thus: growth inhibition of non-replicating M. tuberculosis (AID 488890).

Data on 104 compounds can be found in PubChem BioAssay AID488890 (Southern Research Specialized Biocontainment Screening …, 2010).

Broadly, the pIC50 is the negative decadic logarithm of the IC50, by convention in mol/L. One may read the IC50 as the concentration needed to halve the response being measured.

pIC50: −log10 of the molar value. Records with an inconclusive call do not appear. Activity calls are given as the source filed them. No rule for the calls is given here.

For `CC(C)C1O/C(=N/C(=O)Nc2ccc(Cl)c(Cl)c2)NC1=O` (centres undefined), the pIC50 is 5.32.
Take `O=C(NCCC1=CCCCC1)c1coc(=O)c(Br)c1`: the IC50 was 23.7 µM (inactive).
Same read-out and setting: for `O=C(Cc1cccs1)N/N=C\c1ccc([N+](=O)[O-])s1` the value was 11.6 µM (inactive).
In the case of `COc1cccc(F)c1C(C[N+](=O)[O-])c1c(N)n(C)c(=O)n(C)c1=O` (centres undefined), the pIC50 was 5.12.
As to `O=[N+]([O-])c1cncc([N+](=O)[O-])c1Nc1ccccc1Cl`, the pIC50 was 5.27.
The same measure, in the same setting: under `Cc1cc(NCc2ccccn2)n2ncc(-c3ccccc3)c2n1` stands 5.71.
With `Cc1cc(NC(=O)c2ccccc2F)n(-c2nc3ccccc3[nH]2)n1`, the pIC50 is 5.12.
As for `COc1ccc(C(=O)N/N=C(\c2ccccc2)c2ccccn2)cc1`, the pIC50 was 5.49.
Take `CS(=O)(=O)Nc1cccc2cccnc12`: the IC50 was 21.4 µM (inactive).
With `O=C(N/N=C/c1cc([N+](=O)[O-])ccc1O)C12CC3CC(CC(C3)C1)C2`, the pIC50 is 5.94.
The same measure, in the same setting: under `C/C(=N\NC(=O)c1c[nH]c2ccccc12)c1ccccn1` stands 5.20.
On to `S=C1NC2(CCCC2)N=C1c1ccccc1`, for which the IC50 is 12.4 µM (inactive).
Same read-out and setting: under `C=C1CCC[C@]2(C)C[C@H]3OC(=O)C(CNC(C)CCCC(C)C)[C@H]3CC12` (some centres undefined) stands 15.3 µM (inactive).
For `Cc1ccc2[nH]c(C)c(CCNC(=O)c3cc4cc([N+](=O)[O-])ccc4oc3=O)c2c1`, the pIC50 was 5.04.
Regarding `COc1ccc(-c2nnn(Cc3ccccc3)n2)cc1`, the IC50 was 12.4 µM (inactive).
`Cn1cnc([N+](=O)[O-])c1S(=O)(=O)c1cccc(Cl)c1`: the pIC50 is 5.35.
Still for that read-out and setting: under `C=Cc1cccc(NC(=O)COc2ccccc2)c1` stands 5.24; under `O=C(COc1cccc2ccccc12)Nc1ccc(Cl)cc1C(=O)O`, 5.20.
The same measure, in the same setting: for `COc1ccc(C(=O)N/N=C/c2cccc3cccnc23)cc1` the value was 5.16.
For the compound `O=C(c1cc2ccccc2o1)c1nc2c(n1O)CCCCC2`, the IC50 was 12.8 µM (inactive).
Still for that read-out and setting: under `O=C1CC(N2CCC(c3nc4ccccc4o3)CC2)C(=O)N1` (centres undefined) stands 16.3 µM (inactive); under `CN(C)CC/C=C1\c2ccccc2Sc2cc(F)c(Cl)cc21`, 10.5 µM (inactive).
Consider `O=C(CCC1CCCC1)Nc1ccc(Br)cn1`, for which the pIC50 is 5.41.
With `COC(=O)CCSCc1cn2cc(Cl)ccc2n1`, the IC50 is 32 µM (inactive).
Consider `CC(=O)Nc1sc2c(c1-c1nc3ccccc3s1)CCN(C(C)C)C2`, for which the pIC50 was 5.20.
As for `CCOC(=O)c1sc2nc(CSc3ccccc3)nc(NCCN(C)C)c2c1C`, the IC50 is 14.9 µM (inactive).
`O=C(CCSc1ccccc1)N1CCCC1`: the pIC50 was 5.48.
Consider `CC1CCc2c(sc3nc(CSc4ncn[nH]4)[nH]c(=O)c23)C1` (centres undefined), for which the IC50 was 14.4 µM (inactive).
For `O=C1CC(N2CCSCC2)C(=O)N1CCc1ccccc1` (centres undefined), the IC50 is 19.1 µM (inactive).
With `Cc1cc(Cl)cc(C)c1OCCCCn1ccnc1`, the IC50 is 16.9 µM (inactive).
Turning to `O=C(N/N=C/c1ccc([N+](=O)[O-])s1)c1ccccc1`, the pIC50 is 5.26.
As to `CCOc1ccc2ccccc2c1/C=N/NC(=O)c1ccncc1`, the pIC50 was 6.24.
In the case of `O=C(CNC1CCCC1)Nc1ccc(N2CCCCCC2)cc1`, the IC50 is 10.7 µM (inactive).
For `COCCOC(=O)c1c(C)oc2ccc(OC(=O)c3ccco3)cc12`, the pIC50 is 5.04.
Same read-out and setting: for `Cc1cc(=O)n2cccc(O)c2n1` the value was 5.21; for `CCOc1cccc(/C=N/NC(=O)c2ccc3c(c2)OCCO3)c1O`, 5.95.
In the case of `Cc1cc2n(n1)SC(Nc1ccccc1)N2` (centres undefined), the IC50 is 26.7 µM (inactive).
On to `Oc1ccc(Br)cc1-c1ccn[nH]1`, for which the pIC50 is 5.77.
Take `COc1ccccc1N1CCN(C(=O)c2ccc([N+](=O)[O-])s2)CC1`: the pIC50 was 5.22.
In the case of `Nc1ccc2nc3c(c(Cl)c2c1)CCCC3`, the IC50 is 13.4 µM (inactive).
As to `COc1cc(/C=C2/C(=O)NN(c3ccc(Cl)cc3)C2=O)ccc1OC(=O)c1ccco1`, the pIC50 was 5.29.
The same measure, in the same setting: under `Cc1cc(OCC(=O)Nc2ccncc2)ccc1Br` stands 5.46.
On the same count and under the same terms, for `O=C1N(c2ccc3c(c2)OCCO3)C(c2ccccc2)C1(F)F` (centres undefined) the value was 5.64; for `CS(=O)(=O)c1sc(C#N)c2c1C(=O)CC(c1ccccc1)C2` (centres undefined), 6.09; for `NC(=O)N/N=C\c1cc(Br)ccc1O`, 5.38.
Regarding `CCCCn1nnc(NC(=O)COc2ccc(Cl)c(C)c2)n1`, the pIC50 was 5.12.
Turning to `O=[N+]([O-])c1ccc2nc(-c3ccccn3)[nH]c2c1`, the IC50 is 18.3 µM (inactive).
Regarding `Cc1ccc(C(=O)N/N=C\c2ccc([N+](=O)[O-])s2)cn1`, the pIC50 was 5.47.
The same measure, in the same setting: under `CN(C(=O)COC(=O)c1ccc([N+](=O)[O-])cc1Cl)C1CCCCC1` stands 5.23.
With `CSc1ccc(N=Nc2c(C)[nH]n(C)c2=O)cc1`, the IC50 was 20.6 µM (inactive).
On the same count and under the same terms, for `CN1CCN(c2c(F)cc3c(=O)c(C(=O)O)cn4c3c2SCC4)CC1` the value was 16.8 µM (inactive).
`Cc1ccc(OCC(=O)N2CCCc3ccccc32)cc1`: the pIC50 is 5.20.
Same read-out and setting: under `CC1=Nc2ccccc2/C1=C/c1sc(=N)n(-c2nccs2)c1O` stands 5.82; under `COc1ccc(C(C)=O)cc1COC(=O)c1ccc2ccccc2n1`, 5.36; under `CC(NC(=O)OCc1ccccc1)c1ccccc1` (centres undefined), 6.09.
Still for that read-out and setting: for `CC(C)(C)c1ccc(OCCCC(=O)NC2=NCCS2)cc1` the value was 5.01.
As to `Cc1ccc(OC(=O)CCS(=O)(=O)c2ccc(C)cc2)cc1`, the IC50 was 11.8 µM (inactive).
In the case of `CCOC(=O)COc1ccc2c(=O)c(-c3ccccc3)coc2c1`, the pIC50 is more than 7.00.
As for `Cc1noc(C)c1COc1ccc(C(=O)Nc2ccccn2)cc1`, the IC50 is 24.6 µM (inactive).
The same measure, in the same setting: for `Cn1c(=O)c(C(=O)Nc2ccccn2)c(O)c2ccccc21` the value was 13.2 µM (inactive); for `Cc1ccc(NC(=O)CN(C)CC(=O)Nc2ccc(F)c(Cl)c2)cc1`, 26.5 µM (inactive).
Take `CCOc1cc(CNCCO)cc(Br)c1OCc1ccc(Cl)cc1`: the pIC50 was 5.25.
`Cc1[nH]n2c(=O)c3c(nc2c1-c1ccccc1)CCCC3`: the IC50 was 13.6 µM (inactive).
With `Cc1cc(N2CCN(c3ccccc3)CC2)nc(-n2nc(C)cc2C)n1`, the pIC50 is 5.20.
For the compound `Cc1ccc(Sc2ncccc2N)cc1`, the IC50 is 41.3 µM (inactive).
Take `Cn1nnc(NC(=O)COc2ccc(C3CCCCC3)cc2)n1`: the pIC50 is 5.77.
In the case of `O=C(Nc1nnc(-c2ccco2)o1)c1ccc(Cl)s1`, the IC50 is 11.2 µM (inactive).
Take `O=C(OCn1ncc(Br)c(Br)c1=O)c1ccccc1Cl`: the pIC50 is 5.20.
The same measure, in the same setting: under `Cc1ccc(-c2nnc(-c3cccs3)o2)cc1` stands 5.70.
For `Nc1nc2ccccc2n1C(=O)c1ccc(F)cc1`, the IC50 is 13.2 µM (inactive).
Turning to `CCCCNC(=O)COC(=O)c1cc(Br)ccc1Cl`, the pIC50 is 5.41.
Turning to `CN1CC=C(/C=C/c2ccc(-c3ccccc3)cc2)CC1`, the IC50 is 11.4 µM (inactive).
With `CCN(CC)c1ccc2cc(C(=O)NCc3ccc(F)cc3)c(=N)oc2c1`, the pIC50 is 5.79.
Regarding `Cc1cc2oc3ccc(NCCCn4ccnc4)cc3c(=O)c2cc1C`, the IC50 was 20.9 µM (inactive).
For `CCOC(=O)CN1NC2(CCCC(C)C2)NC1=S` (centres undefined), the IC50 is 11.9 µM (inactive).
For `CCCCCn1c(=O)c2ccccc2n2c(CCl)nnc12`, the pIC50 was 6.14.
Same read-out and setting: under `Cc1ccc2nc(NC(=O)c3ccccn3)sc2c1` stands 6.20.
`COc1ccc(/C=C2\COc3ccccc3C2=O)cc1OC`: the IC50 was 12.5 µM (inactive).
As for `COc1ccc2c3c(cccc13)OCC2=O`, the IC50 is 25.9 µM (inactive).
On to `O=C(N/N=C/c1ccc[nH]1)c1ccc(Cl)cc1`, for which the negative logarithm of the IC50 (pIC50) is 5.41.
The same measure, in the same setting: for `Cc1cccc(NC(=O)COC(=O)CCc2c[nH]c3ccccc23)c1C` the value was 5.21; for `Cc1ccc(CNC(=O)c2ccc([N+](=O)[O-])o2)cc1`, 6.34.
As to `CN1C(=O)CC(Sc2ccccc2C(=O)O)C1=O` (centres undefined), the IC50 is 23.6 µM (inactive).
Turning to `C/C(=N\Nc1nc2ccccc2nc1C)c1ccccc1O`, the pIC50 is 5.78.
For `Nc1ccc2cc(Br)ccc2c1`, the pIC50 was 6.36.
Turning to `O=C(COC(=O)c1cccc([N+](=O)[O-])c1)NCc1cccs1`, the IC50 is 25.7 µM (inactive).
Same read-out and setting: for `Cc1ccc(CC(=O)N2CCN(c3ccc([N+](=O)[O-])cc3)CC2)cc1` the value was 16 µM (inactive).
As for `O=C(N/N=C/c1ccccn1)c1cc([N+](=O)[O-])cc([N+](=O)[O-])c1`, the pIC50 is 5.00.
Same read-out and setting: under `Cc1[nH]nc2c1C(c1ccc(-c3ccc(Cl)cc3)o1)C(C#N)=C(N)O2` (centres undefined) stands 5.65.
Same read-out and setting: under `O=C(N/N=C/c1cc(Br)cc(Br)c1O)c1cccc(N2CCCC2=O)c1` stands 5.37.
On to `CC(C)(C)c1ccc(C(=O)N2CCCC2)s1`, for which the pIC50 is 5.78.
Consider `CCOC(=O)C1CCCN(Cc2ccc(OCc3ccccc3)cc2)C1` (centres undefined), for which the IC50 is 21.8 µM (inactive).
Regarding `COC(=O)COc1ccc(S(=O)(=O)N2CCCCCC2)cc1`, the pIC50 is 5.38.
`O=C(OCn1nnc2ccccc2c1=O)c1cccs1`: the IC50 is 12.4 µM (inactive).
Take `CC(C)c1ccc2[nH]c3c(c2c1)CCC/C3=N\NC(=O)c1ccncc1`: the pIC50 was 5.06.
Still for that read-out and setting: under `O=C1N=c2ccccc2=C1c1c(O)n(-c2cccc(F)c2)[nH]c1=O` stands 5.16; under `CCn1cc(C(=O)NC(C)C23CC4CC(CC(C4)C2)C3)cn1` (centres undefined), 5.56.
For the compound `CN1CCN(/N=C/c2ccc(-c3ccc([N+](=O)[O-])cc3Cl)o2)CC1`, the IC50 is 26.9 µM (inactive).
`Cc1cc(OCCCCn2ccnc2)cc(C)c1Cl`: the pIC50 is 5.33.
Still for that read-out and setting: for `O=C(Nc1ncc2c(n1)-c1ccccc1OC2)c1ccc(F)cc1` the value was 5.36; for `O=C(Nc1cccc(Cl)c1)C1COc2ccccc2O1` (centres undefined), 5.10.
With `Cc1ccc(-n2cc(CNCCc3ncc(C)[nH]3)c(-c3ccc(F)cc3)n2)cc1`, the IC50 is 17.3 µM (inactive).
Consider `Cn1c(CNc2ccccc2O)nc2ccccc21`, for which the pIC50 is 5.25.
Turning to `O=C(COc1ccccc1)Nc1ccc(Cl)cn1`, the pIC50 was 5.12.
